pEC50: −log10 of the molar value. Where two headings read alike, the source gives them in different places.
Key:
Format in all cases: cell-based
[1] = system: melanoma cell line RPMI-7951; assay: Cytotoxicity in cancer cell lines (CellTiter-Glo), RPMI-7951; details: Homo sapiens, RPMI-7951 cells, mean of three tests
Source text: (§1) All cells were obtained from ATCC. […] Normocin® was obtained from InvivoGen. FBS was obtained from Gibco. […] All test compounds were synthesized as described herein.

melanoma cell line A375 = assay: Cytotoxicity in cancer cell lines (CellTiter-Glo), A375; details: Homo sapiens, A-375, A375 cells, mean of three tests
Source text: as §1

[2] = system: glioblastoma cell line U87; assay: Cytotoxicity in cancer cell lines (CellTiter-Glo), U87; details: Homo sapiens, U-87 MG, U87 cells, mean of three tests
Source text: as §1

[3] = system: immortalized human T lymphocyte Jurkat cells; assay: Cytotoxicity in cancer cell lines (CellTiter-Glo), Jurkat; details: mean of three tests
Source text: as §1

[4] = system: human pancreatic carcinoma cell line PL45; assay: Cytotoxicity in cancer cell lines (CellTiter-Glo), PL45; details: PL45 cells, mean of three tests
Source text: as §1

[5] = 48 hours, read-out: Cytotoxicity EC50 at 48 hours, A375
[6] = 48 hours, read-out: Cytotoxicity EC50 at 48 hours, PL45

Structure (SMILES) | pEC50 ([1]; 48 hours, read-out: Cytotoxicity EC50 at 48 hours, RPMI) | pEC50 ([1]; 72 hours, read-out: Cytotoxicity EC50 at 72 hours, RPMI) | pEC50 (melanoma cell line A375; [5]) | pEC50 (melanoma cell line A375; 72 hours, read-out: Cytotoxicity EC50 at 72 hours, A375) | pEC50 ([2]; 48 hours, read-out: Cytotoxicity EC50 at 48 hours, U87) | pEC50 ([2]; 72 hours, read-out: Cytotoxicity EC50 at 72 hours, U87) | pEC50 ([3]; 48 hours, read-out: Cytotoxicity EC50 at 48 hours, Jurkat) | pEC50 ([3]; 72 hours, read-out: Cytotoxicity EC50 at 72 hours, Jurkat) | pEC50 [4, 6] | pEC50 ([4]; 72 hours, read-out: Cytotoxicity EC50 at 72 hours, PL45)
O=S1(=O)C=CC(OS(=O)(=O)c2ccc(Oc3ccccc3)cc2)C1 (centres unmarked) [Compound 1, 1,1-dioxido-2,3-dihydrothiophen-3-yl 4-phenoxybenzenesulfonate] | 6.22 | 6.70 | 5.60 | 4.89 | 5.89 | 6.05 | 6.40 | 6.70 | 5.68 | 6.70
O=S1(=O)C=C[C@H](OS(=O)(=O)c2ccc(Oc3ccccc3)cc2)C1 [Compound 1a, (S)-1,1-dioxido-2,3-dihydrothiophen-3-yl 4-phenoxybenzenesulfonate] |  |  | 5.89 |  |  |  |  |  | 5.68 | 
O=S1(=O)C=C[C@@H](OS(=O)(=O)c2ccc(Oc3ccccc3)cc2)C1 [Compound 1b, (R)-1,1-dioxido-2,3-dihydrothiophen-3-yl 4-phenoxybenzenesulfonate] |  |  | 5.60 |  |  |  |  |  | 5.52 | 

Source: patent publication US12404259B2, “Inhibitors of extracellular signal-regulated kinase” (GEN1E LIFESCIENCES INC., priority 2023, dated 2025)
